Patent publication US9708628B2, “Cationic lipid having improved intracellular kinetics” (NOF CORPORATION, priority 2011, dated 2017)

Columns and labels:
[1] = Particle size and surface potential of pDNA-encapsulating MENDs, dynamic light scattering (Zetasizer Nano); format: physicochemical
Procedure: A solution of pDNA encoding luciferase gene and protamine (CALBIOCHEM) solution were diluted with 10 mM HEPES buffer to 0.3 mg/mL and […], respectively. While stirring 0.3 mg/mL pDNA (125 μL), 0.24 mg/mL protamine (125 μL) was added dropwise in small portions to prepared an electrostatic complex of protamine and pDNA (N/P ratio=1.2) as a core of the vector. In the method described in the following (2), 10 mM HEPES buffer (pH 5.3) was used and, in the method described in (3), 10 mM HEPES buffer (pH 7.4) was used.
A lipid solution in ethanol was prepared by mixing 5 mM cationic lipid, 5 mM phospholipid and 5 mM cholesterol (Chol) at desired ratios to achieve 165 nmol total lipid in an Eppendorf tube, further adding various PEG lipids (1 mM solution in ethanol) in an amount corresponding to 3 mol % of the total lipid, and adding ethanol to achieve a total volume of 100 μL. While stirring the lipid solution in a vortex mixer, 100 μL of the nucleic acid electrostatic complex (10 mM HEPES; pH 5.3) prepared in [Experimental Example 1] (1) was quickly added, and thereafter 10 mM HEPES buffer (1.8 mL, adjusted to pH 5.3) was added to dilute the mixture to an ethanol concentration of 5%. The mixture was concentrated to about 50 μL by ultrafiltration using Amicon Ultra 4 (Millipore) under centrifugation conditions (room temperature, 2267 rpm, 20 min). Thereafter, it was diluted to 4 mL with 100 mM HEPES buffer (adjusted to pH 7.4), and again concentrated by centrifugation (2267 rpm, 20 min) under room temperature conditions. Finally, it was diluted with 10 mM HEPES buffer (pH 7.4) to a desired lipid concentration.
A solution of each lipid in chloroform (5 mM DOTAP 24.75 μL, 5 mM DOPE 33 μL, 5 mM Chol 24.75 μL) were mixed in a glass test tube at DOTAP:DOPE:Chol=3:4:3 to achieve 412.5 nmol total lipid. Ethanol was added to a total amount of 250 μL, and the mixture was dried under reduced pressure in a desiccator. The solvent was evaporated to give a lipid thin film. To the lipid thin film was added 250 μL of the gene electrostatic complex (in 10 mM HEPES; pH 7.4) prepared in [Experimental Example 1] (1) to a total lipid concentration of 1.65 mM, and the mixture was stood at room temperature for 10 min to allow for hydration, and sonicated by a sonicator (AIWA MEDICAL […] CO., LTD.) for 1 min.
The particle size and the surface potential were measured by the dynamic light scattering method (Zetasizer Nano; Malve Rn). The particle size and the surface potential of the various MENDs prepared by the preparation method of [Experimental Example 1] are shown in Table 3. The charge of B-2 and DODAP at physiological pH was in a preferable mode of −10 to +10 mV, whereas that of B-2-1 was +12.3, which is not less than +10 mV.
(1) MEND having a composition of B-2-4 (Example 4):DOPE:Chol=3:3:4 or B-2-5 (Example 5):POPE:Chol=3:4:3 was prepared according to the method described in [Experimental Example 1] (1) and (2).
The particle size and the surface potential were measured by the dynamic light scattering method (Zetasizer Nano; Malvern). The particle size and the surface potential of the various MENDs prepared by the preparation method of [Experimental Example 1] are shown in Table 4.

[2] = Liposome destabilization test in reductive environment (DTT, TNS fluorescence); format: physicochemical; settings: 10 mM DTT, 37° C., 0-24 hr; TNS at pH 4.0
Procedure: DTT was added to various MEND solutions to a final concentration of 10 mM and the mixtures were stood at 37° C. The fluorescence intensity was measured using TNS (6-(p-Toludino)-2-Naphthalene Sulfonic acid) at the time points of 0, 1, 2, 4, 8, 24 hr later. The MEND solutions were diluted to 0.5 mM. The 0.5 mM MEND solution (12 μL), 20 mM citrate buffer (186 μL, containing 150 mM NaCl, acidic pH (pH 4.0)), and 0.6 mM TNS (2 μL) were added to a 96-well plate for fluorescence measurement (Nunc), and the fluorescence intensity was measured at excitation wavelength 321 nm, detection wavelength 447 nm, at 37° C. As a control, MEND solution added with the same amount of 10 mM HEPES buffer free of DTT at 0 hr and stood for each time at 37° C. was used, and the fluorescence intensity was measured using TNS by the same treatment. The fluorescence intensity under reductive environment was divided by the fluorescence intensity of the control and used as an index of the destabilization of lipid membrane.
As a result, attenuation of TNS fluorescence due to the DTT treatment was not observed in DODAP and B-2-1 not having a disulfide bond. […] TNS is adsorbed, under an acidic environment of pH 4.0, to a particle surface having a positive surface potential via electrostatically interactions, and emits fluorescence according to the liposoluble environment of the lipid structure part of a liposome.

HT1080 cells = experiment: Intracellular kinetics: decapsulation of pDNA from MEND (confocal microscopy); format: cell-based; settings: 3 hr after transfection
Procedure: For MEND preparation, the Rhodamine-labeled pDNA prepared by the method of [Experimental Example 1] (4) was used. In addition, the fluorescence label of the lipid constituting MEND was measured by the method described in [Experimental Example 1] (3). MENDs having a composition of cationic lipid:SOPE:Chol=5:3:2 were prepared by the method described in [Experimental Example 1] (2). For the preparation, PEG2000-DMG was used as PEG lipid, and MEND solutions corresponding to 0.55 mM of the lipid concentration were prepared. For cationic MEND, a lipid having a composition of DOTAP:DOPE:Chol:=3:4:3 was used, and the cationic MEND was prepared according to the method described in [Experimental Example 1] (3). […]
HT1080 cells were plated on a glass bottom dish at 1×10^5 cells/2 mL/dish 24 hr before. B-2 MEND was diluted with Krebs buffer to achieve pDNA 8 μg/1 mL Krebs buffer/dish. As for B-2-1 or DOTAP MEND, MEND was diluted with Krebs buffer to achieve pDNA 1.6 μg/1 mL Krebs buffer/dish and transfected. After 2.5 hr, Hoechst 33342 was added at 1 μL/dish and, 30 min later, the cells were washed twice with heparin solution (20 units/mL, 2 mL), Krebs buffer (1 mL) was added, and the cells were observed by a confocal laser scan microscope.
Rhodamine-labeled pDNA, lipid membrane of MEND and nucleus were shown in pseudo colors of red, green and blue, respectively.

[3] = pDNA MEND, cationic lipid:SOPE:Chol = 3:4:3
[4] = pDNA MEND, cationic lipid:SOPE:Chol = 5:3:2
[5] = pDNA MEND, cationic lipid:DOPE:Chol = 3:3:4
[6] = pDNA MEND, cationic lipid:POPE:Chol = 3:4:3
[7] = pDNA MEND, DOTAP:DOPE:Chol = 3:4:3

| Compound | PDI [1, 3] | size (nm) [1, 3] [nm] | zeta (mV) [1, 3] [mV] | PDI [1, 4] | size (nm) [1, 4] [nm] | zeta (mV) [1, 4] [mV] | attenuation of TNS fluorescence due to DTT treatment (destabilization of lipid membrane) [2] | gene decapsulation (colocalization of pDNA red and MEND lipid green) (HT1080 cells) | also measured |
| --- | --- | --- | --- | --- | --- | --- | --- | --- | --- |
| CCCCCCCCCCCCCC(=O)OCCCN(C)CCCCCCN(C)CCCOC(=O)CCCCCCCCCCCCC [Example B-2-1, reference compound] | 0.07 | 150.3 | 12.4 | 0.084 | 147.8 | 12.3 | not observed | clear colocalization of red and green | charge at physiological pH ([1]; pDNA MEND): +12.3 mV |
| CC1=C(/C=C/C(C)=C/C=C/C(C)=C/C(=O)OCCCN(C)CCSSCCN(C)CCCOC(=O)/C=C(C)/C=C/C=C(C)/C=C/C2=C(C)CCCC2(C)C)C(C)(C)CCC1 [Example B-2-4] |  |  |  |  |  |  |  |  | PDI [1, 5]: 0.12; size (nm) [1, 5]: 146.7 nm; zeta (mV) [1, 5]: −7.22 mV |
| Cc1c(C)c2c(c(C)c1OC(=O)CCC(=O)OCCCN(C)CCSSCCN(C)CCCOC(=O)CCC(=O)Oc1c(C)c(C)c3c(c1C)CCC(C)(CCCC(C)CCCC(C)CCCC(C)C)O3)CCC(C)(CCCC(C)CCCC(C)CCCC(C)C)O2 (centres unmarked) [Example B-2-5] |  |  |  |  |  |  |  |  | PDI [1, 6]: 0.15; size (nm) [1, 6]: 131.7 nm; zeta (mV) [1, 6]: −9.35 mV |
| CCCCCCCC/C=C\CCCCCCCC(=O)OCC(C[N+](C)(C)C)OC(=O)CCCCCCC/C=C\CCCCCCCC (centres unmarked) [DOTAP, reference compound] |  |  |  |  |  |  |  | Red dots were notable | surface potential of MEND ([1]; pDNA MEND using DOTAP): about +50 mV; PDI [1, 7]: 0.295; size (nm) [1, 7]: 235.8 nm; zeta (mV) [1, 7]: 57.9 mV |
| CCCCCCCCCCCCCC(=O)OCCCN(C)CCSSCCN(C)CCCOC(=O)CCCCCCCCCCCCC [Example B-2] | 0.14 | 156.3 | −0.08 | 0.11 | 168.9 | −2.95 | disappearance of TNS fluorescence in a time-dependent manner | Red dots were notable |  |
| CCCCCCCC/C=C\CCCCCCCC(=O)OCC(CN(C)C)OC(=O)CCCCCCC/C=C\CCCCCCCC (centres unmarked) [DODAP, reference compound] | 0.093 | 151.1 | −3.18 | 0.106 | 165.6 | 4.13 | not observed |  |  |
